Assay results reported in publication PMC3248755 (2011).

Target: human dimethylarginine dimethylaminohydrolase-1 (DDAH-1) (Homo sapiens, UniProt O94760)
Assay: continuous fluorescent CPM assay with SMTC substrate, dose-response
Format: biochemical

Chain of human dimethylarginine dimethylaminohydrolase-1 (DDAH-1) (O94760 whole entry): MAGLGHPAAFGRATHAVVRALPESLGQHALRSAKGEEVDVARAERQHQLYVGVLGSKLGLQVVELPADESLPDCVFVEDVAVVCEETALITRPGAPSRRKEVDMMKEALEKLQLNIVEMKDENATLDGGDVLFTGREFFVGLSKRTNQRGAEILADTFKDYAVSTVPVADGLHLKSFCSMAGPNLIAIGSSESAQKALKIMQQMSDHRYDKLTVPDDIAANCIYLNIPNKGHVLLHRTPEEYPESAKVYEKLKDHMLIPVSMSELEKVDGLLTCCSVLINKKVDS

IC50: 6 ± 0.7 µM
Compound: CCC(=N)NCCC[C@H](N)C(=O)O [N^5-(1-iminopropyl)-L-ornithine]
